Data reported in PubChem BioAssay (NCI).
“And” between values parts separate entries of the source, which are not always exact repeats. Equal entries are not always repeated.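 Where inhibition never reached the appropriate level, the endpoint shown equals the highest concentration tested. Otherwise, values were interpolated linearly from a five-concentration, 48-hour dose response in 96-well plates. Abbreviation: GI50, concentration required for 50% inhibition of growth. TGI is the concentration that stops growth completely.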

Experiments:
Assay in all cases: NCI-60 cell line screen, 48 h
HL-60(TB) leukemia = test system: HL-60(TB) leukemia
MCF7 breast = test system: MCF7 breast
MDA-MB-231 breast = test system: MDA-MB-231 breast
HCC-2998 colon = test system: HCC-2998 colon
UACC-257 melanoma = test system: UACC-257 melanoma
U251 CNS = test system: U251 CNS
OVCAR-8 ovarian = test system: OVCAR-8 ovarian
HOP-62 NSCLC = test system: HOP-62 NSCLC
SW-620 colon = test system: SW-620 colon
K-562 leukemia = test system: K-562 leukemia

Compound | TGI (HL-60(TB) leukemia) | TGI (MCF7 breast) | TGI (MDA-MB-231 breast) [µM] | TGI (HCC-2998 colon) | TGI (UACC-257 melanoma) | TGI (U251 CNS) | TGI (OVCAR-8 ovarian) | TGI (HOP-62 NSCLC) | TGI (SW-620 colon) | TGI (K-562 leukemia) | GI50 (HL-60(TB) leukemia) | GI50 (MCF7 breast) [µM] | GI50 (UACC-257 melanoma) [µM] | GI50 (U251 CNS) [µM] | GI50 (OVCAR-8 ovarian) | GI50 (SW-620 colon) [µM] | GI50 (K-562 leukemia) [µM]
O=C(NNC(=O)c1ccc(Cl)cc1NC(=O)C12CC3CC(CC(C3)C1)C2)c1ccc(Cl)cc1 | 58.7 µM | 87.5 µM | 51.2 | 33.4 µM | 66.1 µM | 45.4 µM | > 100 µM | 44.4 µM | > 100 µM | > 100 µM | – | – | – | – | – | – | –
Oc1ccc(Nc2nc(Cl)c3[nH]cnc3n2)cc1 | > 100 µM | > 100 µM | > 100 | > 100 µM | > 100 µM | > 100 µM | > 100 µM | > 100 µM | > 100 µM | > 100 µM | – | – | – | – | – | – | –
COc1ccc(-c2nc(-c3cnccn3)n(C/C=C/c3ccccc3)n2)cc1 | > 100 µM | > 100 µM | > 100 | > 100 µM | > 100 µM | > 100 µM | > 100 µM | 60.3 µM | > 100 µM | > 100 µM | – | – | – | – | – | – | –
CC1=NN(c2ccccc2)C(=O)/C1=C\c1c(C)[nH]n(-c2ccccc2)c1=O | > 100 µM | > 100 µM | > 100 | > 100 µM | > 100 µM | > 100 µM | > 100 µM | > 100 µM | > 100 µM | > 100 µM | – | – | – | – | – | – | –
O=C1CC(c2cccc([N+](=O)[O-])c2)C2(C(=O)NC(=S)NC2=O)C(c2cccc([N+](=O)[O-])c2)C1 (configuration not stated) | > 100 µM | 50.9 µM | 62.4 | 59.2 µM | > 100 µM | 81.3 µM | 43.6 µM | > 100 µM | > 100 µM | > 100 µM | – | – | – | – | – | – | –
CC(Cl)(CCC(Cl)C(C)(C)Cl)C(=O)CBr (configuration not stated) | > 100 µM | 28.5 µM | 23.9 | 30.9 µM | 25.5 µM | 29.8 µM | 23.7 µM | 32.5 µM | 4.96 µM | > 100 µM | – | – | – | – | – | – | –
CC(C)(C)c1cc(C(C)(C)C)c(SC2OC(CO)C(O)C(O)C2O)c(O)c1O (configuration not stated) | 14.5 µM | > 34.2 µM | 50.9 | 18.2 µM | > 72.6 µM | 20.3 µM | 27.7 µM | 33.9 µM | 49.9 µM | > 39.8 µM | – | – | – | – | – | – | –
CCN(CC)CC[n+]1ccc2c(C)c3[nH]c4ccccc4c3c(C)c2c1 | 3.7 µM and 0.464 µM and 0.743 µM | 7.36 µM and 5.5 µM and 2.47 µM | 2.93 | 1.52 µM and 1.43 µM and 1.97 µM | 2.07 µM and 2.59 µM and 1.99 µM | 1.3 µM and 5.1 µM and 1.63 µM | 4.97 µM and 5.17 µM and 2.25 µM | 3.46 µM and 7.99 µM and 4.74 µM | 5.65 µM and 13.2 µM and 6.96 µM | 5.43 µM and 3.49 µM and 2.19 µM | 0.402 µM and < 0.0437 µM | 0.323 | 0.633 | 0.25 | 0.392 µM and 0.59 µM and 0.195 µM | 0.654 | 0.1
O=[N+]([O-])/C(Cl)=C(\NCCO)C(Cl)=C(Cl)Cl | 11.4 µM | > 100 µM | > 90.7 | > 100 µM | > 100 µM | > 100 µM | > 92.5 µM | > 100 µM | 77.4 µM | 39.7 µM | – | – | – | – | – | – | –
COC(=O)CCCc1nc2ccccc2nc1N=Nc1ccccc1 | 20.1 µM | > 100 µM | > 100 | > 100 µM | > 100 µM | > 100 µM | 58.5 µM | > 100 µM | > 100 µM | 58.2 µM | – | – | – | – | – | – | –
Cc1cc2ccccc2n2c1nc1ccc(O)cc12 | > 10 µM | > 10 µM | > 10 | > 10 µM | > 10 µM | > 10 µM | > 10 µM | > 10 µM | > 10 µM | > 10 µM | – | – | – | – | – | – | –
CC(=O)OC1C2CCC3CC2C2(SCCS2)C31 (configuration not stated) | > 100 µM | > 100 µM | > 100 | > 100 µM | > 100 µM | > 100 µM | > 100 µM | > 100 µM | > 100 µM | > 100 µM | – | – | – | – | – | – | –
CCOC(=O)c1c(SC(=O)c2ccc(Cl)cc2)n(-c2ccccc2)c(=S)n(-c2ccccc2)c1=O | > 100 µM | > 100 µM | > 100 | > 100 µM | > 100 µM | > 100 µM | > 100 µM | > 100 µM | > 100 µM | > 100 µM | – | – | – | – | – | – | –
C#CCn1c(I)cc2c(c1=O)COC(=O)[C@]2(O)CC | > 100 µM | > 100 µM | > 100 | > 100 µM | > 100 µM | > 100 µM | > 100 µM | > 100 µM | > 100 µM | > 100 µM | – | – | – | – | – | – | –
Cc1cccc(NC(=S)Nc2cccc(Cl)c2)n1 | > 100 µM | > 100 µM | > 100 | > 100 µM | > 100 µM | > 100 µM | > 100 µM | > 100 µM | > 100 µM | > 100 µM | – | – | – | – | – | – | –
C/C(CC(O)(C(F)(F)F)C(F)(F)F)=N\O | > 10 µM | > 10 µM | > 10 | > 10 µM | > 10 µM | > 10 µM | > 10 µM | > 10 µM | > 10 µM | > 10 µM | – | – | – | – | – | – | –
